Results: ChEMBL document CHEMBL1649371, “Isoxazolidinyl polycyclic aromatic hydrocarbons as DNA-intercalating antitumor agents” (Eur J Med Chem, 2011)
pIC50: −log10 of the molar value. The source made the active and inactive calls. The calls are words filed in the database; no cut-off is given here. Numbered stars: 1 amine (or outer) side, 2 acyl side, 3 side chain; on linkers, the order of the positions; unused ones are H or OH. Bridge positions count the residues as written; N and C are the ends. Square brackets hold non-standard residues; d marks the D form. Peptide text beside a SMILES is read from it. I, II: the chains in the order shown. Actinocin(1to9) = Cc1c2oc3c(C)ccc(C(=O)[*:2])c3nc-2c(C(=O)[*:1])c(N)c1=O; NMeV = CN[C@H](C(=O)O)C(C)C; Sar = CNCC(=O)O

Experiments:
Calf thymus DNA = experiment: Binding affinity to calf thymus DNA by UV spectral analysis; assay type: nucleic-acid assay; conditions: Bos taurus
HeLa = experiment: Cytotoxicity against human HeLa cells after 20 hrs by MTS assay; assay type: functional, cell-based
A549 [1] = experiment: Cytotoxicity against human A549 cells by SRB assay; assay type: functional, cell-based
MOLT-3 = experiment: Cytotoxicity against human MOLT3 cells after 20 hrs by MTS assay; assay type: functional, cell-based; conditions: MOLT-3, 20 h
THP-1 = experiment: Cytotoxicity against human THP1 cells after 20 hrs by MTS assay; assay type: functional, cell-based; conditions: THP-1, 20 h
U-937 = experiment: Cytotoxicity against human U937 cells after 20 hrs by MTS assay; assay type: functional, cell-based; conditions: U-937, 20 h
Vero = experiment: Cytotoxicity against african green monkey Vero cells after 20 hrs by MTS assay; assay type: cell-based; conditions: Chlorocebus sabaeus
Nucleic Acid = experiment: Binding affinity to Escherichia coli phiX174 RF1 DNA assessed as DNA unwinding in presence of topoisomerase 1 after 30 mins by electrophoresis; assay type: nucleic-acid assay
A549 [2] = experiment: Cytotoxicity against human A549 cells assessed as decrease of viable cells at 0.5 ug/ml after 8 hrs relative to control; assay type: functional

Kb (Calf thymus DNA)	Activity (Nucleic Acid)	SMILES	pIC50 (HeLa)	pIC50 (A549 [1])	pIC50 (MOLT-3)	pIC50 (THP-1)	pIC50 (U-937)	pIC50 (Vero)	Activity (A549 [2]) [%]
6.8 ×10³ /M	–	CN1O[C@H](CO)C[C@@H]1c1ccc2ccc3cccc4ccc1c2c34	–	–	–	–	–	–	–
–	–	CN1O[C@H]2C(=O)NC(=O)[C@H]2[C@@H]1c1ccc2ccc3cccc4ccc1c2c34 (racemic)	3.87	4.08	4.02	3.99	3.89	3.82	–
–	–	CN1O[C@@H]2C(=O)NC(=O)[C@@H]2[C@@H]1c1ccc2ccc3cccc4ccc1c2c34 (racemic)	3.55	3.48	3.38	3.40	< 3.30	< 3.30	–
–	–	NC[C@@H]1C[C@H](c2cc3ccccc3c3ccccc23)N(Cc2ccccc2)O1 (racemic)	4.30	4.49	4.37	4.26	3.81	3.88	–
9.6 ×10⁴ /M	Active	CN1O[C@H](CN)C[C@@H]1c1ccc2ccc3cccc4ccc1c2c34 (racemic)	4.82	5.05	4.92	4.72	4.06	3.99	–
–	–	NC[C@H]1C[C@H](c2cc3ccccc3c3ccccc23)N(Cc2ccccc2)O1 (racemic)	4.35	4.46	4.30	4.21	3.95	3.85	–
–	–	CN1O[C@@H](CN)C[C@@H]1c1ccc2ccc3cccc4ccc1c2c34 (racemic)	4.82	4.96	4.77	4.74	4.10	3.96	–
–	–	Cc1c2oc3c(C)ccc(C(=O)N[C@@H]4C(=O)N[C@H](C(C)C)C(=O)N5CCC[C@H]5C(=O)N(C)CC(=O)N(C)[C@@H](C(C)C)C(=O)O[C@@H]4C)c3nc-2c(C(=O)N[C@@H]2C(=O)N[C@H](C(C)C)C(=O)N3CCC[C@H]3C(=O)N(C)CC(=O)N(C)[C@@H](C(C)C)C(=O)O[C@@H]2C)c(N)c1=O [DACTINOMYCIN] (I: T[dV]P[Sar][NMeV] / II: T[dV]P[Sar][NMeV]; ester I:1-I:C, II:1-II:C; linker I:N-II:N via Actinocin(1to9))	–	–	≥ 6.00	–	–	–	40
